For data set [1], the system named is antigen-positive FaDu cells. In words: In vitro binding to FaDu cells (FACS). The settings on record: 1 hour on ice, FITC-labeled anti-human IgG, read-out: apparent KD. The method, then: The binding of BIWA 4 antibody and BIWI 1 conjugate to antigen-positive FaDu cells was determined. Cells ([…]) were incubated in 96-well plates with varying concentrations of antibody or conjugate on ice for 1 hour. The test article was washed from the plate and FITC-labeled anti-human IgG was added and the incubation on ice was continued in the dark for 1 hour. After washing, the cells were fixed with 1% paraformaldehyde and analyzed on a fluorescence activated cell sorter (FACS).

In data set [2] the test system is FaDu tumors. In words: BIWI 1 monotherapy in FaDu xenografted nude mice. Type of data set: in vivo, mouse. The settings on record: 21 mg/kg/d control antibody i.v., five consecutive days. The protocol: (§1) In vivo anti-tumor efficacy of BIWI 1 was tested in three nude mouse xenograft models applying antigen-positive human tumors: A431 (ATCC # CRL 1555; epidermoid carcinoma of the vulva), FaDu (ATCC # HTB 43; squamous cell carcinoma of the pharynx), and MDA-MB 453 (ATCC # HTB-131; breast carcinoma). The cells were received from ATCC and cultured in RPMI1640 medium containing 10% fetal calf serum and supplements. 1×10^6 tumors cells were transplanted subcutaneously into the right flank of 6 week old female NMRI-nu/nu mice. Tumor growth was monitored by measuring tumor size. A tumor response was rated as complete response when the tumor completely disappeared at any time after start of treatment. The response was rated as partial response when the tumor volume decreased after treatment but thereafter started regrowing. The tolerability of the treatment was monitored by measuring mouse weight during the observation period.
Mice were randomised into the following treatment groups (treatment/initial mean tumor volume/tumor volume range/number of mice): • Group 1: Control (PBS)/142±82 mm^3/34-268 mm^3 /8 mice. • Group 2: BIWA 4 (21 mg/kg/d)/134±86 mm^3/42-268 mm^3/6 mice. • Group 3: BIWI 1 (2.1 mg/kg/d) 149±96 mm^3/50-268 mm^3/6 mice. • Group 4: BIWI 1 (7 mg/kg/d)/132±97 mm^3 42-268 mm^3/6 mice. • Group 5: BIWI 1 (21 mg/kg/d)/129±74 mm^3/50-231 mm^3/6 mice.
Groups of 6 mice were treated with 2.1 mg/kg/d BIWI 1, 7 mg/kg/d BIWI 1, 21 mg/kg/d BIWI 1, and 21 mg/kg/d control antibody, respectively. Treatment consisted of i.v. injections of BIWI 1 given on five consecutive days, starting at day 1. […] The remaining 2 tumors grew similar to untreated control tumors.

In a further data set the test system is A431 tumors. In words: BIWI 1 monotherapy in A431 xenografted nude mice. Type of data set: in vivo, mouse. The settings on record: 21 mg/kg/d control antibody i.v., five consecutive days. The method, then:
as §1
Mice were randomised into the following treatment groups (treatment/initial mean tumor volume/tumor volume range/number of mice): • Group 1: Control (PBS)/185±217 mm^3/19-424 mm^3/5 mice. • Group 2: BIWA 4 (21 mg/kg/d)/133±115 mm^3/42-302 mm^3/5 mice. • Group 3: BIWI 1 (2.1 mg/kg/d)/107±63 mm^3/42-205 mm^3′/5 mice. • Group 4: BIWI 1 (7 mg/kg/d)/132±73 mm^3/42-205 mm^3/5 mice. • Group 5: BIWI 1 (21 mg/kg/d)/107±[…]/42-205 mm^3/5 mice.
Groups of 5 mice were treated with 2.1 mg/kg/d BIWI 1, 7 mg/kg/d BIWI 1, 21 mg/kg/d BIWI 1, and 21 mg/kg/d control antibody, respectively. Treatment consisted of i.v. injections of BIWI 1 given on five consecutive days, starting at day 1.

Data set [3] has as its system MDA-MB-453 tumors. In words: BIWI 1 combination with doxorubicin in nude mice xenografted with MDA-MB-453 tumors. In kind it is in vivo, mouse. The note with it: doxorubicin 6 mg/kg i.v. q7dx4.
Description: Similar experiments as outlined under Section 2.6 were undertaken in a human breast carcinoma xenograft model. Experiments were performed using nude mice xenografted subcutaneously with the human breast carcinoma cell line MDA-MBA53. […] The efficacy of these combinations was compared to those of the respective monotherapies by i) analysing the tumor volumes over time and ii) by determining the time for tumors to reach a certain size (tumor growth delay).
The dilutions were prepared freshly for each application or stored at +4° C. during the whole treatment period. […] Doxorubicin (Doxorubicin “Ebewe”®, 2 mg/ml) was diluted in PBS. 200 μl of solutions with different concentrations were injected into the tail vein. Docetaxel (Taxotere®, Aventis, 10 mg/ml) was diluted in 0.9% NaCl. 200 μl of solutions with different concentrations were injected into the tail vein.
The xenograft model was handled slightly different as outlined under Section 2.1. Briefly, 1×10^7 MDA-MB-453 cells (ATCC No. HTB-131) were injected into the mammary fat pad of female NMRI nu/nu mice. After reaching a volume of approximately 1000 mm^3 tumors were excised, cut into 4×4 mm pieces and passaged further subcutaneously. Tumor fragments were cryoconserved in 90% RPMI 1640/10% dimethylsulfoxide (slow freezing process down to −80° C., storage in liquid nitrogen). For further passaging, frozen tumor fragments were thawed, washed 3 times in PBS and implanted subcutaneously into the right and left flanks of a 4-5 female NMRI nu/nu mice. Tumors of these mice were then used to prepare the animals for a therapy experiment. Tumors were excised with a size of approximately 10 mm in diameter, cut into 2×2 mm pieces and implanted subcutaneously into the right flank of 6-8 week old female NMRI nu/nu mice. Approximately twice as many animals as needed for the experiment were prepared. When tumors reached a size of 5-10 mm in diameter (10-14 days after implantation), animals were randomised and treatments were started. Animals were obtained from Harlan (Germany) or M&B (Denmark). Tumor sizes and body weights were recorded as described in Section 2.7.
A short description of data set [4]: Tolerability in MDA-MB-453 combination experiments (body weight). In kind it is in vivo, mouse. The settings on record: doxorubicin 6 mg/kg monotherapy group; combination group with BIWI 1 75 μg/kg DM1; 6 animals per group. The method, then: (§2) Tumor sizes and body weights were recorded 2-3 times per week. Tumor sizes were measured with a calliper (length and width) and the volume was calculated according to the following formula: volume (length)×(width)^2×([…]). The tolerability of the treatment was monitored by measuring mouse weight during the whole observation period. […] For calculation of the mean tumor volumes per group, the last values of tumor size for individual animals were carried forward in case that these animals had to be sacrificed due to large tumor burden before the whole group was terminated. In addition to the absolute tumor volume in mm^3, the relative tumor volumes (RTV) were calculated as follows: […]
(§3) In addition, for some experiments, the mean time for tumors to reach 8 times (T8T) their initial sizes were also calculated. The growth delay factor (GDF8) was then calculated accordingly. Percentages of mean relative tumor volumes of treated versus control groups (T/C) were calculated on the days indicated. For statistical evaluation of combination therapies exact Wilcoxon tests were used. Tolerability was assessed by monitoring body weight changes.

For data set [5], the system named is FaDuDD tumors. Description: BIWI 1 combination with docetaxel in nude mice xenografted with FaDuDD tumors. Type of data set: in vivo, mouse. The settings on record: docetaxel 3 mg/kg i.v. q7dx4. The method, then: (§4) The antibody solution was injected into the tail vein with an injection volume of 200 μl for a 25 g mouse. In the control groups without BIWI 1 treatment animals were injected i.v. with PBS. […] The solution was injected into the tail vein with an injection volume of 200 μl for a 25 g mouse. […] The solution was injected into the tail vein with an injection volume of 200 μl for a 25 g mouse.
(§5) Tumor sizes and body weights were recorded 2-3 times per week. Tumor sizes were measured with a calliper (length and width) and the volume was calculated according to the following formula: volume (length)×(width)^2×([…]). The tolerability of the treatment was monitored by measuring mouse weight during the whole observation period. […] For calculation of the mean tumor volumes per group, the last values of tumor size for individual animals were carried forward in case that these animals had to be sacrificed due to large tumor burden before the whole group was terminated. In addition to the absolute tumor volume in mm^3, the relative tumor volumes (RTV) were calculated as follows:
(§6) RTV=(tumor volume at day x)/(tumor volume at start of treatment)×100 For the evaluation of treatment efficacy the following parameters were calculated: • T/C (%)=(mean RTV of treated group)/(mean RTV of control group)×100 • T4T (tumor quadrupling time)=time until the mean RTV reaches 400% • GDF4 (growth delay factor)=T4T treated/T4T control.
as §3
To assess the efficacy of BIWI 1 in combination with the taxane docetaxel (Taxotere), non-curative doses of both drugs were tested as single agents or in combination in nude mice xenografted with FADuDD tumors. In pilot experiments a dose of 3 mg/kg docetaxel (q7dx4) was determined to be non-curative in this model. BIWI 1 was used at the non-curative dose of 200 μg/kg DM 1 and at a somewhat higher dose (300 μg/kg DM1).
The effect was somewhat more pronounced in the two BIWI 1 monotherapy treatment groups with T/C 41-30% and GDF4: 2.8-4.4. Complete tumor regression could be observed in 1/8 cases with the higher BIWI 1 dose. […] Treatment was well tolerated in all groups, except for a slight unexplained weight loss (approx. −5%) in the docetaxel monotherapy group.

The subject of data set [6] is MDA-MB-453 tumors.
Description: Experiments were performed using nude mice xenografted subcutaneously with the human breast carcinoma cell line MDA-MBA53. […] The efficacy of these combinations was compared to those of the respective monotherapies by i) analysing the tumor volumes over time and ii) by determining the time for tumors to reach a certain size (tumor growth delay).
The dilutions were prepared freshly for each application or stored at +4° C. during the whole treatment period. […] 200 μl of solutions with different concentrations were injected into the tail vein. Docetaxel (Taxotere®, Aventis, 10 mg/ml) was diluted in 0.9% NaCl. 200 μl of solutions with different concentrations were injected into the tail vein.
Briefly, 1×10^7 MDA-MB-453 cells (ATCC No. HTB-131) were injected into the mammary fat pad of female NMRI nu/nu mice. After reaching a volume of approximately 1000 mm^3 tumors were excised, cut into 4×4 mm pieces and passaged further subcutaneously. Tumor fragments were cryoconserved in 90% RPMI 1640/10% dimethylsulfoxide (slow freezing process down to −80° C., storage in liquid nitrogen). For further passaging, frozen tumor fragments were thawed, washed 3 times in PBS and implanted subcutaneously into the right and left flanks of a 4-5 female NMRI nu/nu mice. Tumors of these mice were then used to prepare the animals for a therapy experiment. Tumors were excised with a size of approximately 10 mm in diameter, cut into 2×2 mm pieces and implanted subcutaneously into the right flank of 6-8 week old female NMRI nu/nu mice. Approximately twice as many animals as needed for the experiment were prepared. When tumors reached a size of 5-10 mm in diameter (10-14 days after implantation), animals were randomised and treatments were started. Animals were obtained from Harlan (Germany) or M&B (Denmark). Tumor sizes and body weights were recorded as described in Section 2.7.
A short description of data set [7]: Tolerability in FaDu combination experiments (body weight). Type of data set: in vivo, mouse. The method, then: as §2, §3
Another data set concerns cells. The settings on record: free DM1, literature background; cited from earlier work.
Data set [8] has as its system FaDuDD tumors. Description: BIWI 1 combination with cisplatin in nude mice xenografted with FaDuDD tumors. Type of data set: in vivo, mouse. The settings on record: cisplatin 4 mg/kg i.v. q7dx4. The protocol:
as §4, §5, §6, §3
A different set of experiments was done with cisplatin. In a pilot experiment, a dose of 4 mg/kg cisplatin administered i.v. four times in weekly intervals was determined to be non-curative in this model, and also represents the maximum tolerated dose in the mouse strain used. This dose of cisplatin was combined with BIWI 1 at the non-curative doses of 200 μg/kg DM1 and 300 Ag/kg DM1 already used in the previous experiment. […] In the latter combination group 2/8 complete tumor regressions could be observed. […] Treatment was well tolerated in all groups.

Data set [9] has as its system FaDu tumors. In words: BIWI 1 combination therapy with paclitaxel in the FaDu xenograft model. Type of data set: in vivo, mouse. The settings on record: or both. The method, then: as §1
Mice were randomised into the following treatment groups (treatment/initial mean tumor volume/tumor volume range/number of mice): • Group 1: Control (PBS)/197 mm^3/65-402 mm^3/8 mice • Group 2: Paclitaxel/182 mm^3 /65%-302 mm^3/8 mice • Group 3: BIWI 1/208 mm^3 /65-382 mm^3/8 mice • Group 4: BIWI 1+paclitaxel/159 mm^3 /79-335 mm^3 /7 mice
Treatment consisted either of five i.v. injections of BIWI 1 (7 mg/kg corresponding to 100 μg/kg DM1) at day 1, 3, 5, 8, 10, or of six i.p. injections of paclitaxel (10 mg/kg) at day 2, 4, 6, 9, 11, 13, respectively, or a combination thereof. Control animals were treated with PBS.
One tumor completely dissappeared during treatment and the animal remained tumor free until the end of the observation period.

In data set [10] the test system is breast carcinoma xenografts. Description: BIWI 1 (five daily doses) combination with paclitaxel in human breast carcinoma xenograft model. In kind it is in vivo, mouse. The protocol:
BIWI was given i.v. into the tail vein at doses of 50 μg DM1/kg/day or 100 μg DM1/kg/day for five consecutive days. Paclitaxel (Taxol®) was given i.v. at 20 or 10 mg/kg, doxorubicin (Adriamycin®) at 6 or 4 mg/kg only on the first day of the treatment period, in each case 4 hours after BIWI 1 treatment. In mice bearing breast carcinoma xenografts with a volume of approximately 100 mm3.

[11] abbreviates: BIWI 1 7 mg/kg i.v. x5, paclitaxel 10 mg/kg i.p. x6.

Where “and” joins values, the source holds several entries; their conditions need not be identical. Equal entries are not always repeated. Where two headings read alike, the source gives them in different places.

As to BIWA 4, the Kd in data set [1] turned out to be 1 nM. Also, in the data set on FaDu tumors [2], the anti-tumor effect result is listed as “no anti-tumor effect” and the “tumor volume doubling time” value is reported as “approximately 5 days”. Also, in the data set on A431 tumors, the anti-tumor effect entry is given as “no anti-tumor effect” and the “tumor volume doubling time” value is given as “approximately 5 days”.
For `COc1cccc2c1C(=O)c1c(O)c3c(c(O)c1C2=O)C[C@@](O)(C(=O)CO)C[C@@H]3O[C@H]1C[C@H](N)[C@H](O)[C@H](C)O1` [Doxorubicin, reference compound], in the data set with MDA-MB-453 tumors [3], the GDF4 came to 1.0 and the “T/C (d13)” value worked out at 66%. Besides, the “animals with transient weight loss of more than 12%” value in data set [4] is on record as “two”.
Consider `CC(=O)O[C@@]12CO[C@@H]1C[C@H](O)[C@@]1(C)C(=O)[C@H](O)C3=C(C)[C@@H](OC(=O)[C@H](O)[C@@H](NC(=O)OC(C)(C)C)c4ccccc4)C[C@@](O)([C@@H](OC(=O)c4ccccc4)[C@H]21)C3(C)C` [Docetaxel], for which, in the data set with FaDuDD tumors [5], the GDF4 was determined as 1.9, the “T4T” value was found to be 13.5 days and the “T/C (d 16)” value was 56%. For the same compound, in the data set on MDA-MB-453 tumors [6] (docetaxel 3 mg/kg i.v. q7dx4), the GDF4 was found to be 0.8, the “T4T” value is 9.0 days and the “T/C (d 16)” value is 102%. Also, in the data set on MDA-MB-453 tumors [6] (docetaxel 6 mg/kg i.v. q7dx4), the GDF4 was 1.3; the “T4T” value was 14 days and 13.9 days; the “T/C (d 16)” value amounted to 71%. For the same compound, in [7] (docetaxel monotherapy group 3 mg/kg q7dx4, FaDuDD xenografted mice), the weight loss entry is “approx. −5%”.
In the case of `COc1cc2cc(c1Cl)N(C)C(=O)C[C@H](OC(=O)[C@H](C)N(C)C(=O)CCS)[C@]1(C)O[C@H]1[C@H](C)[C@@H]1C[C@@](O)(NC(=O)O1)[C@H](OC)/C=C/C=C(\C)C2` [DM1, N^2′-deacetyl-N^2′-(3-mercapto-1-oxopropyl)-Maytansine], the “concentration toxic to cells in vitro” value in the data set with cells is given as “about 10^−10 M”.
As to `N.N.[Cl][Pt][Cl]` [Cisplatin, reference compound], the “maximum tolerated dose in the mouse strain used” value in [7] (cisplatin i.v. four times in weekly intervals, pilot experiment) is reported as 4 mg/kg. Also, in the data set with FaDuDD tumors [8], the GDF4 was 1.1, the “T4T” value was 11.3 days and the “T/C (d 19)” value came out at 100%.
For the compound `CC(=O)O[C@H]1C(=O)[C@@]2(C)[C@H]([C@H](OC(=O)c3ccccc3)[C@]3(O)C[C@H](OC(=O)[C@H](O)[C@@H](NC(=O)c4ccccc4)c4ccccc4)C(C)=C1C3(C)C)[C@]1(OC(C)=O)CO[C@@H]1C[C@@H]2O` [Paclitaxel, reference compound], the “Initial Tumor Doubling Time” value with FaDu tumors [9] (BIWI 1 7 mg/kg i.v. day 1,3,5,8,10, paclitaxel 10 mg/kg i.p. day 2,4,6,9,11,13) turned out to be 7 days. Also, in the data set on FaDu tumors [9] (setting [11]), the “Complete Regression” value is reported as 0/8 and the “Growth Delay Factor” value stood at 0.75. The “T/C (median relative tumor volumes of treated versus control groups)” value in data set [10] (paclitaxel monotherapy 10 mg/kg i.v. on first day) amounted to 50%. The “T/C (median relative tumor volumes of treated versus control groups)” value in data set [10] (paclitaxel monotherapy 20 mg/kg i.v. on first day) is 13%.

Source of the values: patent publication US20050244413A1, “Compositions and methods for treating cancer using cytotoxic CD44 antibody immunoconjugates and chemotherapeutic agents” (priority 2002, published 2005).
